Legend:
[1] = biological target: T1, D2R (Homo sapiens, UniProt P14416); test: HTRF competitive binding screening of virtual hits at 10 µM (normalized decrease in fluorescence); conditions: for Normalized Decrease in Fluorescence ± SD: Table 3, 10 µM, n = 4, normalized to the control; for NDF (normalized decreased fluorescence) ± SD: Table S9, all selected virtual hits, n = 4, 10 µM
[2] = biological target: T1, D2R; test: HTRF KI determination of the selected ligands; format: binding; conditions: for Fold Difference in comparison to the determined KI of dopamine / Ki: Table 4; for Ki: n = 6
Method: The selected compounds were investigated in vitro to determine their binding affinities (KI values) at D2R.
All the HTRF assays were performed using a Tecan Spark plate reader. The respective settings were specifically modified and optimized for the determination of D2R ligand-binding affinities. […] Fluorophores were excited at 320 nm. A Dichroic 510 mirror was used, while lag and integration times of 100 and 400 µs were applied, respectively. Flashes were set to 75. Electronic gain was automatically optimized, while the z-position was optimized based on the well with the highest expected signal. […] The first plate was used to determine the gain and the z-position. Subsequently, the determined values were set manually for the second plate to enable direct comparison between the different plates.
The cells were stored in liquid nitrogen until further use. […] Bromocriptine mesylate (50 mg; CAYM14598-50) was acquired from VWR. The assay was conducted according to the standard operation protocol (SOP) available from PerkinElmer/cisbio. The 96-well plates were incubated at room temperature for 2 h. The 96-well plates were read on a Tecan Spark plate reader (the settings are shown in Section 4.5). The respective concentrations of the dilution series were performed in triplicates. In total, KD determination was performed three times.
The materials described in 4.6 were also used during KI determination of the ligands selected after screening. […] KI was determined following the SOP available at PerkinElmer/cisbio. The 96-well plates were incubated at room temperature in the dark for 2 h. The 96-well plates were read on a Tecan Spark plate reader (the settings are shown in Section 4.5). In total, KI determination was performed twice.

T1 sequence (P14416 whole entry): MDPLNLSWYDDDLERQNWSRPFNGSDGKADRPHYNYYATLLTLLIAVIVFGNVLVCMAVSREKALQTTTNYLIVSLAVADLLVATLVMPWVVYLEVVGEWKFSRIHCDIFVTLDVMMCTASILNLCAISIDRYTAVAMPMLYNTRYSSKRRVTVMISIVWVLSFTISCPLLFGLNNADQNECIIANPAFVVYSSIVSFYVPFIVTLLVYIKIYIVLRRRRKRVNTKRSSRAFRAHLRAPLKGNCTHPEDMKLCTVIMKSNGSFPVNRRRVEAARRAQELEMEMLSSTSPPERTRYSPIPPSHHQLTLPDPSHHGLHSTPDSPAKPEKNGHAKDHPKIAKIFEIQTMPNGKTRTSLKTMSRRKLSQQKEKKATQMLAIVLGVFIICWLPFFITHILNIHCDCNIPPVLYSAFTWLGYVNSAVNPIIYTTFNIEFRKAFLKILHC

Row | Compound | Normalized Decrease in Fluorescence ± SD [1] | NDF (normalized decreased fluorescence) ± SD [1] | activity (KI range in words) [2] | Fold Difference in comparison to the determined KI of dopamine [2] | Ki [2]
1 | O=C(CCN1CCN(c2ccccc2F)CC1)Nc1cccc(F)c1 [Compound 17] | 8.18 ± 3.62 | 8.18 ± 3.62 | micromolar | 9.0 | 1240 nM
2 | O[C@H](CNCCNc1ccc(C(F)(F)F)cn1)CSc1ccc(F)cc1 [Compound 18] | 10.85 ± 4.93 | 10.85 ± 4.93 | micromolar | 4.2 | 2630 nM
3 | NC(=O)c1ccccc1OCCCN1CCN(c2ccccc2)CC1 [Compound 19] | 22.08 ± 6.62 | 22.08 ± 6.62 | submicromolar | 34.7 | 320 nM

Reference: article PMC9318694 (Molecules, 2022)
